According to patent US20130143886A1, “METHODS FOR PRESERVING AND/OR INCREASING RENAL FUNCTION USING XANTHINE OXIDOREDUCTASE INHIBITORS” (priority 2006, published 2013):

Key:
Type in all cases: in vivo, Male Wistar rats
remnant kidney (RK) rats [1] = assay: Renal arteriolar morphology; settings: RK rats vs RK control group
Description: Male Wistar rats (295-340 g) were used to produce rats with remnant kidney (RK) as follows. […] Rats were then assigned to one of four treatment groups: Group 1, RK control rats (n=7); Group 2, RK+febuxostat (Fx) rats (n=8); Group 3, RK+oxonic acid (OA) rats (n=6); and Group 4, RK+OA+Fx (n=10). Oxonic acid (OA) (Sigma-Aldrich, St Louis Mo., USA), administered at 750 mg/kg body weight daily by oral gavage, was given starting the day after the 5⁄6 nephrectomy. Beginning immediately following the surgery, febuxostat was administered in drinking water at 30 mg/L (3-4 mg/kg/day), whereas the respective controls received only drinking water (with 3.5 mg/L of NaCl added to keep an equivalent salt concentration to the Fx-containing water). After the micropuncture study, kidneys were washed by perfusion with phosphate-buffered saline and then fixed with 4% paraformaldehyde. Renal biopsies were embedded in paraffin. Sections of 4-μm thick fixed tissue were stained with periodic acid Schiff (PAS) reagent and Masson's trichrome staining. Arteriolar morphology was assessed by indirect peroxidase immunostaining for alpha-smooth muscle actin (DAKO Corp, Carpinteria, Calif., USA). Renal sections incubated with normal rabbit serum were used as negative controls for immunostaining against alpha smooth-muscle actin. For each arteriole, the outline of the vessel and its internal lumen (excluding the endothelium) were generated using computer analysis to calculate the total medial area (outline inline), in 10 arterioles per biopsy. The media/lumen ratio was calculated by the outline/inline relationship (See, Sanchez-Lozada L G et al., “Mild hyperuricemia induces glomerular hypertension in normal rats”, Am J Physiol Renal Physiol 283:[…]-[…] (2002); Sanchez-Lozada L G, et al., “Mild hyperuricemia induces vasoconstriction and maintains glomerular hypertension in normal and remnant kidney rats,” Kidney Int 67:237-247 (2005), the contents of each are herein incorporated by reference). Quantifications were performed blinded.

remnant kidney (RK) rats [2] = assay: Body weight, food and water intake in remnant kidney rats; settings: RK rats (RK + Fx or RK + OA group)
Description: Male Wistar rats (295-340 g) were used to produce rats with remnant kidney (RK) as follows. […] Rats were then assigned to one of four treatment groups: Group 1, RK control rats (n=7); Group 2, RK+febuxostat (Fx) rats (n=8); Group 3, RK+oxonic acid (OA) rats (n=6); and Group 4, RK+OA+Fx (n=10). Oxonic acid (OA) (Sigma-Aldrich, St Louis Mo., USA), administered at 750 mg/kg body weight daily by oral gavage, was given starting the day after the ⅚ nephrectomy. Beginning immediately following the surgery, febuxostat was administered in drinking water at 30 mg/L (3-4 mg/kg/day), whereas the respective controls received only drinking water (with 3.5 mg/L of NaCl added to keep an equivalent salt concentration to the Fx-containing water). All groups were treated for four weeks. Body weight (beginning just before surgery) and food and water intakes were measured daily. Systolic blood pressure, measured in conscious rats by a tail cuff sphygmomanometer, and plasma uric acid (UA) levels were measured at just before surgery (namely, at baseline) and at the end of the four weeks. Proteinuria was measured at baseline and at the end of two and four weeks. A renal micropuncture procedure along with systemic blood pressure monitoring under pentobarbital anesthesia was performed at the end of four weeks followed by morphologic evaluation of the renal preglomerular microvasculature. Food and water intake were determined daily. Systolic blood pressure (SBP) was measured by a tail-cuff sphygmomanometer using an automated system (XBP-100; Kent Scientific Co, Torrington, Conn., USA) in conscious animals. All animals were preconditioned for blood pressure measurements one week before each experiment. Plasma uric acid was quantified using a commercial kit (Diagnostic Chemicals Ltd, Charlottetown, PEI, Canada). Proteinuria was determined by turbidimetry by the method of trichloroacetic acid as described in Henry R J et al., “Turbidimetric determination of proteins with sulfosalicylic and tricholoroacetic acids”, Proc Soc Exp Biol Med 92:748-751 (1956), the contents of which are herein incorporated by reference.

remnant kidney (RK) rats [3] = assay: Plasma uric acid in remnant kidney rats; settings: RK+OA rats, end of four weeks
Description: Male Wistar rats (295-340 g) were used to produce rats with remnant kidney (RK) as follows. […] Rats were then assigned to one of four treatment groups: Group 1, RK control rats (n=7); Group 2, RK+febuxostat (Fx) rats (n=8); Group 3, RK+oxonic acid (OA) rats (n=6); and Group 4, RK+OA+Fx (n=10). Oxonic acid (OA) (Sigma-Aldrich, St Louis Mo., USA), administered at 750 mg/kg body weight daily by oral gavage, was given starting the day after the ⅚ nephrectomy. Beginning immediately following the surgery, febuxostat was administered in drinking water at 30 mg/L (3-4 mg/kg/day), whereas the respective controls received only drinking water (with 3.5 mg/L of NaCl added to keep an equivalent salt concentration to the Fx-containing water). All groups were treated for four weeks. Body weight (beginning just before surgery) and food and water intakes were measured daily. Systolic blood pressure, measured in conscious rats by a tail cuff sphygmomanometer, and plasma uric acid (UA) levels were measured at just before surgery (namely, at baseline) and at the end of the four weeks. Proteinuria was measured at baseline and at the end of two and four weeks. A renal micropuncture procedure along with systemic blood pressure monitoring under pentobarbital anesthesia was performed at the end of four weeks followed by morphologic evaluation of the renal preglomerular microvasculature. Food and water intake were determined daily. Systolic blood pressure (SBP) was measured by a tail-cuff sphygmomanometer using an automated system (XBP-100; Kent Scientific Co, Torrington, Conn., USA) in conscious animals. […] Plasma uric acid was quantified using a commercial kit (Diagnostic Chemicals Ltd, Charlottetown, PEI, Canada). Proteinuria was determined by turbidimetry by the method of trichloroacetic acid as described in Henry R J et al., “Turbidimetric determination of proteins with sulfosalicylic and tricholoroacetic acids”, Proc Soc Exp Biol Med 92:748-751 (1956), the contents of which are herein incorporated by reference.

remnant kidney (RK) rats [4] = assay: Micropuncture procedure to assess glomerular hemodynamics
Description: Male Wistar rats (295-340 g) were used to produce rats with remnant kidney (RK) as follows. […] Rats were then assigned to one of four treatment groups: Group 1, RK control rats (n=7); Group 2, RK+febuxostat (Fx) rats (n=8); […] Oxonic acid (OA) (Sigma-Aldrich, St Louis Mo., USA), administered at 750 mg/kg body weight daily by oral gavage, was given starting the day after the 5⁄6 nephrectomy. […] All groups were treated for four weeks. Body weight (beginning just before surgery) and food and water intakes were measured daily. Systolic blood pressure, measured in conscious rats by a tail cuff sphygmomanometer, and plasma uric acid (UA) levels were measured at just before surgery (namely, at baseline) and at the end of the four weeks. Proteinuria was measured at baseline and at the end of two and four weeks. A renal micropuncture procedure along with systemic blood pressure monitoring under pentobarbital anesthesia was performed at the end of four weeks followed by morphologic evaluation of the renal preglomerular microvasculature. Animals were anesthetized with pentobarbital sodium (30 mg/kg, intraperitoneal (ip)) and placed on a thermoregulated table to maintain body temperature at 37° C. Trachea, jugular veins, femoral arteries and the left ureter were catheterized with polyethylene tubing (PE-240, PE-50, and PE-10). The left kidney was exposed, placed in a Lucite holder, sealed with agar, and covered with Ringer's solution. Mean arterial pressure (MAP) was monitored with a pressure transducer (Model p23 db; Gould, San Juan, Puerto Rico) connected to the catheter in the femoral artery and recorded on a polygraph (Grass Instruments, Quincy, Mass., USA). Blood samples were taken periodically and replaced with blood from a donor rat. Rats were maintained under euvolemic conditions by infusion of 10 mL/kg of body weight of isotonic rat plasma during surgery, followed by an infusion of 25%, polyfructosan, at 2.2 ml/h (Inutest; Fresenius Kabi, Linz, Austria). After 60 minutes, five to seven samples of proximal tubular fluid were obtained to determine flow rate and polyfructosan concentrations. Intratubular pressure under free-flow (FF) and stop-flow (SFP) conditions and peritubular capillary pressure (Pc) were measured in other proximal tubules with a servo-null device (Servo Nulling Pressure System; Instrumentation for Physiology and Medicine, San Diego, Calif., USA). Glomerular colloid osmotic pressure was estimated from protein concentrations obtained from blood of the femoral artery (Ca) and surface efferent arterioles (Ce). Polyfructosan was measured in plasma and urine samples by the anthrone-based technique described by Davidson and […] in “Simplification of the anthrone method for the determination of inulin in clearance studies,” J Lab Clin Med. 62:351-356 (1963), the contents of which are herein incorporated by reference. In brief, plasma samples were deproteinated first with trichloroacetic acid. After centrifugation, the supernatant was used for polyfructosan measurement. Polyfructosan concentrations in plasma and urine samples were assessed by the addition of anthrone reagent followed by incubation at 45° C. for 50 minutes and reading in a spectrophotometer set at wavelength of 620 nm. […] Total GFR was calculated using the following formula: GFR=(U×V)/P, where U is the polyfructosan concentration in urine, V is urine flow rate, and P is the polyfructosan concentration in plasma. The volume of fluid collected from individual proximal tubules was estimated from the length of the fluid column in a constant-bore capillary tube of known internal diameter. The concentration of tubular polyfructosan was measured by the microfluorometric method described by Vurek and Pegram in “Fluorometric method for the determination of nanogram quantities of inulin,” Anal Biochem 16:409-419 (1966), the contents of which are herein incorporated by reference. […]

[5] = RK rats (RK + Fx or RK + OA group), end of four weeks

Compound: O=C(O)c1nc(=O)[nH]c(=O)[nH]1 [OA, oxonic acid, reference compound]
- Thickening of preglomerular vessels / afferent arteriole (in words) (remnant kidney (RK) rats [1]): developed additional thickening of the afferent arteriole
- BW (remnant kidney (RK) rats [2]; End of Week 4): 328.5 ± 6.6 g
- BW Gain (from baseline) (remnant kidney (RK) rats [2]; End of Week 4): 5.5 ± 10.3 g
- Daily Food Intake (remnant kidney (RK) rats [2]; Week 1): 14.2 ± 2.1 g
- Daily Water Intake (remnant kidney (RK) rats [2]; Week 1): 44.3 ± 3.5 mL
- Daily Food Intake (remnant kidney (RK) rats [2]; Week 2): 19.7 ± 0.7 g
- Daily Water Intake (remnant kidney (RK) rats [2]; Week 2): 58.6 ± 1.4 mL
- Daily Food Intake (remnant kidney (RK) rats [2]; Week 3): 21.3 ± 1.0 g
- Daily Water Intake (remnant kidney (RK) rats [2]; Week 3): 57.2 ± 2.6 mL
- Daily Food Intake (remnant kidney (RK) rats [2]; Week 4): 20.7 ± 0.9 g
- Daily Water Intake (remnant kidney (RK) rats [2]; Week 4): 48.6 ± 3.0 mL
- Plasma uric acid relative to the RK control rats (in words) (remnant kidney (RK) rats [3]): increased significantly by over two-fold
- GFR (remnant kidney (RK) rats [4]; [5]): 0.29 ± 0.06 mL/min
- Kf (remnant kidney (RK) rats [4]; [5]): 0.027 ± 0.003 nL/s · mmHg
- PGC (remnant kidney (RK) rats [4]; [5]): 64.4 ± 1.1 mmHg
- QA (remnant kidney (RK) rats [4]; [5]): 170 ± 16 nL/min
- SNGFR (remnant kidney (RK) rats [4]; [5]): 51.3 ± 4.8 nL/min
- MAP (remnant kidney (RK) rats [4]; RK rats (RK + Fx or RK + OA group), end of four weeks, under anesthesia): 198 ± 10 mmHg
- Glomerular plasma flow (in words) (remnant kidney (RK) rats [4]; RK+OA group): significant decrease
- GFR (in words) (remnant kidney (RK) rats [4]; RK+OA rats vs RK control group): similarly low as in the RK control group
- Single-nephron GFR (in words) (remnant kidney (RK) rats [4]; RK+OA rats vs RK control group): lower compared to the RK control group
- Afferent resistance (in words) (remnant kidney (RK) rats [4]; RK+OA rats vs RK control rats): significantly elevated
